pIC50: −log10 of the molar value.
test system: HBeAg (surrogate marker for cccDNA) in HepDES19 cells; assay: Engineered HepDES19 primary screen assay (HBeAg ELISA); assay type: cell-based, HBV; conditions: Hepatitis B virus, 120 h, HBeAg in culture supernatant, 5 days incubation, read-out: IC50 (HepDES19 primary screen assay, inhibition of extracellular HBeAg level)
Text: The assay was employed to screen for cccDNA inhibitors. HepDES19 is a cccDNA-producing cell line. In this cell line, HBeAg in the cell culture supernatant as surrogate marker, as HBeAg production depends on cccDNA level and activity. HepDES19 is an engineered cell line which contains a 1.1 unit length HBV genome, and pgRNA transcription from the transgene is controlled by Tetracycline (Tet). In the absence of Tet, pgRNA transcription will be induced, but HBV e antigen (HBeAg) could not be produced from this pgRNA due to very short leader sequence before the HBeAg start codon and the start codon is disrupted. Only after cccDNA is formed, the missing leader sequence and start codon mutation would be restored from the 3′-terminal redundancy of pgRNA, and then HBeAg could be synthesized. Therefore, HBeAg could be used as a surrogate marker for cccDNA (Zhou, T. et al., Antiviral Res. (2006), 72(2), 116-124; Guo, H. et al., J. Virol. (2007), 81(22), 12472-12484).
HepDES19 cells were seeded at 2×10^6 cells per T150 flask and cultured with the culture medium (Dulbecco's Modified Eagle Medium: Nutrient Mixture F-12 [DMEM-F12, Gibco Cat. 11320-82], 10% Fetal Bovine Serum [FBS, Clontech Cat. 631101], 0.1 mM Non-Essential Amino Acids Solution [NEAA, Gibco Cat. 11140-050], 50 μg/mL Penicillin-Streptomycin [PS, Invitrogen Cat. 15140-163], 500 μg/mL Geneticin [G418, Invitrogen Cat. 10131-027]) containing 3 μg/mL Tet (Sigma, Cat. 87128) for 5 days. Cells were then seeded at 4×10^6 cells per T150 in the same culture medium as described above in the absence of Tet for 8 days. Cells were then harvested and frozen at density of 2×10^6 cells per mL. For compound testing, the frozen cells were thawed and seeded into 96-well plates at a density of 6×10^4 cells per well. At 24 hours after seeding, half log serial dilutions of compounds made with Dimethyl sulfoxide (DMSO, Sigma, Cat. D2650) were further diluted with the same culture medium as described above before they were added to the cells to reach desired final compound concentrations and 1% DMSO concentration. Plates were then incubated at 37° C. for another 5 days before measurement of HBeAg level and cell viability. Intracellular HBeAg level were measured with enzyme-linked immunosorbent assay (ELISA) kit (Shanghai Kehua Diagnostic Medical Products Co., Ltd). Cell viability was assessed using Cell Counting Kit-8 (DonJindo, Cat. CK04-20). IC50 values were derived from the dose-response curve using 4 parameter logistic curve fit method.
The compounds of the present invention were tested for their capacity to inhibit extracellular HBeAg level as described herein.

Point of comparison: `CC(NCCOc1cc(C(F)(F)F)ccc1-c1cc(=O)c2cccc(Cl)c2o1)C(N)=O` (stereo not drawn) [Example 168, 2-[2-[2-(8-chloro-4-oxo-chromen-2-yl)-5-(trifluoromethyl)phenoxy]ethylamino]propanamide], pIC50 5.94. Against it:
- Cc1ccc(-c2cc(=O)c3cccc(Cl)c3o2)c(OCCN2CC(C(=O)O)C2)c1 [Example 054, 1-[2-[2-(8-chloro-4-oxo-chromen-2-yl)-5-methyl-phenoxy]ethyl]azetidine-3-carboxylic acid] — 0.68 log units higher, 6.62
- O=c1cc(-c2ccc(C(F)(F)F)cc2OCCNS(=O)(=O)C2CC2)oc2c(Cl)cccc12 [Example 096] — 0.95 log units higher, 6.89
- O=C(O)C(=O)N1CC(Oc2cc(C(F)(F)F)ccc2-c2cc(=O)c3cccc(Cl)c3o2)C1 [Example 127] — 1.16 log units higher, 7.10
- Cc1ccc(-c2cc(=O)c3cccc(Cl)c3o2)c(OCCNC(C)(C)C(=O)O)c1 [Example 058, 2-[2-[2-(8-chloro-4-oxo-chromen-2-yl)-5-methyl-phenoxy]ethylamino]-2-methyl-propanoic acid] — 0.47 log units lower, 5.47
- O=C(O)CCNCCOc1cc(C(F)(F)F)ccc1-c1cc(=O)c2cccc(Cl)c2o1 [Example 124] — 0.71 log units lower, 5.23
- NC(=O)C1CCN(CCOc2cc(Br)ccc2-c2cc(=O)c3cccc(Cl)c3o2)C1 (stereo not drawn) [Example 083, 1-[2-[5-bromo-2-(8-chloro-4-oxo-chromen-2-yl)phenoxy]ethyl]pyrrolidine-3-carboxamide] — 0.31 log units higher, 6.25
- CS(=O)(=O)NC(=O)[C@H]1CCN(CCOc2cc(Br)ccc2-c2cc(=O)c3cccc(Cl)c3o2)C1 [Example 069] — within 0.2 log units, 5.75
- O=C(O)C1CN(CCOc2cc(C(F)(F)F)ccc2-c2cc(=O)c3cccc(Cl)c3o2)CCO1 (stereo not drawn) [Example 035, 4-[2-[2-(8-chloro-4-oxo-chromen-2-yl)-5-(trifluoromethyl)phenoxy]ethyl]morpholine-2-carboxylic acid] — 0.32 log units lower, 5.62
- CNS(=O)(=O)NCCCOc1cc(C)ccc1-c1cc(=O)c2cccc(Cl)c2o1 [Example 107] — 0.37 log units lower, 5.57
- O=c1cc(-c2ccccc2O)oc2cc(O)ccc12 [Example F-1, 7-hydroxy-2-(2-hydroxyphenyl)chromen-4-one, reference compound] — lower, < 4.30
- CC(C)[C@@H](NCCCOc1cc(C(F)(F)F)ccc1-c1cc(=O)c2cccc(Cl)c2o1)C(=O)O [Example 009, (2R)-2-[3-[2-(8-chloro-4-oxo-chromen-2-yl)-5-(trifluoromethyl)phenoxy]propylamino]-3-methyl-butanoic acid] — 0.81 log units lower, 5.13
- CCOC(=O)C(=O)NCCOc1cc(C)ccc1-c1cc(=O)c2cccc(Cl)c2o1 [Example 109, ethyl 2-[2-[2-(8-chloro-4-oxo-chromen-2-yl)-5-methyl-phenoxy]ethylamino]-2-oxo-acetate] — 0.55 log units lower, 5.39
- O=C(NCCCOc1cc(C(F)(F)F)ccc1-c1cc(=O)c2cccc(Cl)c2o1)C(=O)NS(=O)(=O)C1CC1 [Example 149, N-[3-[2-(8-chloro-4-oxo-chromen-2-yl)-5-(trifluoromethyl)phenoxy]propyl]-N′-cyclopropylsulfonyl-oxamide] — 0.88 log units lower, 5.06
- COc1cc(OCCNC(=O)C(=O)O)c(-c2cc(=O)c3cccc(Cl)c3o2)cc1Br [Example 122] — 0.83 log units lower, 5.11
- Cc1ccc(-c2cc(=O)c3cccc(Cl)c3o2)c(OCCNS(N)(=O)=O)c1 [Example 161, 8-chloro-2-[4-methyl-2-[2-(sulfamoylamino)ethoxy]phenyl]-4-oxo-chromene] — 0.62 log units lower, 5.32
- CN(CCCOc1cc(C(F)(F)F)ccc1-c1cc(=O)c2cccc(Cl)c2o1)CC(=O)O [Example 134, 2-[3-[2-(8-chloro-4-oxo-chromen-2-yl)-5-(trifluoromethyl)phenoxy]propyl-methyl-amino]acetic acid] — 0.85 log units lower, 5.09
- CC(C)(COc1cc(C(F)(F)F)ccc1-c1cc(=O)c2cccc(Cl)c2o1)NC(=O)C(=O)O [Example 115] — within 0.2 log units, 5.98
- O=C(O)CN(CCCOc1cc(C(F)(F)F)ccc1-c1cc(=O)c2cccc(Cl)c2o1)CC(=O)O [Example 140] — 0.78 log units higher, 6.72
- Cc1ccc(S(=O)(=O)NC(=O)NCCCOc2cc(C)ccc2-c2cc(=O)c3cccc(Cl)c3o2)cc1 [Example 156, 1-[3-[2-(8-chloro-4-oxo-chromen-2-yl)-5-methyl-phenoxy]propyl]-3-(p-tolylsulfonyl)urea] — 0.56 log units lower, 5.38
- O=C(O)C(=O)N1CCC(Oc2cc(C(F)(F)F)ccc2-c2cc(=O)c3cccc(Cl)c3o2)CC1 [Example 129] — 0.62 log units lower, 5.32
- Cc1cc(F)c(-c2cc(=O)c3cccc(Cl)c3o2)c(OCCNC(=O)C(=O)O)c1 [Example 112] — 0.37 log units higher, 6.31
- CC(C)[C@H](NCCOc1cc(C(F)(F)F)ccc1-c1cc(=O)c2cccc(Cl)c2o1)C(=O)O [Example 037, (2S)-2-[2-[2-(8-chloro-4-oxo-chromen-2-yl)-5-(trifluoromethyl)phenoxy]ethylamino]-3-methyl-butanoic acid] — 0.55 log units lower, 5.39
- COc1ccc(-c2cc(=O)c3cccc(Cl)c3o2)c(OCCNC(=O)C(=O)O)c1 [Example 111, 2-[2-[2-(8-chloro-4-oxo-chromen-2-yl)-5-methoxy-phenoxy]ethylamino]-2-oxo-acetic acid] — 0.80 log units higher, 6.74
- C[C@@H]1NC(=O)N(CCOc2cc(C(F)(F)F)ccc2-c2cc(=O)c3cccc(Cl)c3o2)C1=O [Example 155] — 0.65 log units lower, 5.29
- Cc1ccc(-c2cc(=O)c3cccc(Cl)c3o2)c(OCCNC2CC(C(=O)O)C2)c1 (stereo not drawn) [Example 053, 3-[2-[2-(8-chloro-4-oxo-chromen-2-yl)-5-methyl-phenoxy]ethylamino]cyclobutanecarboxylic acid] — 1.06 log units higher, 7.00
- Cc1cc(-c2cc(=O)c3cccc(Cl)c3o2)c(OCCN2CCC[C@@H]2C(=O)O)cc1Br [Example 044, (2R)-1-[2-[5-bromo-2-(8-chloro-4-oxo-chromen-2-yl)-4-methyl-phenoxy]ethyl]pyrrolidine-2-carboxylic acid] — 0.62 log units lower, 5.32
- O=C(O)[C@H]1CCCN1CCOc1ccccc1-c1cc(=O)c2cccc(Cl)c2o1 [Example 030, (2R)-1-[2-[2-(8-chloro-4-oxo-chromen-2-yl)phenoxy]ethyl]pyrrolidine-2-carboxylic acid] — within 0.2 log units, 5.88
- COc1cc(OCCOCCN2CC[C@@H](C(=O)O)C2)c(-c2cc(=O)c3cccc(Cl)c3o2)cc1C [Example 050, (3R)-1-[2-[2-[2-(8-chloro-4-oxo-chromen-2-yl)-5-methoxy-4-methyl-phenoxy]ethoxy]ethyl]pyrrolidine-3-carboxylic acid] — 0.78 log units lower, 5.16
- O=C(O)[C@@H]1C[C@H](NCCCOc2cc(Br)ccc2-c2cc(=O)c3cccc(Cl)c3o2)CCO1 (relative stereo) [Example 060, cis-4-[3-[5-bromo-2-(8-chloro-4-oxo-chromen-2-yl)phenoxy]propylamino]tetrahydropyran-2-carboxylic acid] — 0.63 log units lower, 5.31
- O=c1cc(-c2ccc(C(F)(F)F)cc2OCCCN([C@H]2C[C@H](C(=O)O)C2)S(=O)(=O)c2ccccc2)oc2c(Cl)cccc12 [Example 142] — within 0.2 log units, 6.13
- Cc1cc(-c2cc(=O)c3cccc(Cl)c3o2)c(OCCN2CCC[C@H]2C(=O)O)cc1Cl [Example 045] — 0.75 log units lower, 5.19
- O=c1cc(-c2ccc(Br)cc2OCCOCCN2CCOCC2)oc2c(Cl)cccc12 [Example 090, 2-[4-bromo-2-[2-(2-morpholinoethoxy)ethoxy]phenyl]-8-chloro-chromen-4-one] — within 0.2 log units, 5.89

From US20220169639A1 (priority 2018, published 2022)
